Experiment [1] relates to OP9 cells differentiated into fat cells. In words: Inhibition of lipid droplet accumulation in fat cells differentiated from OP9 cells (glycerol cell-based assay), isolated compounds. Further details: species or system mouse. As to conditions: final concentration 100 μM, 7 days, blank group = 100%. The text has this:
Herein, the content of glycerol in fat cells is used as a quantitative indicator to observe whether there is lipolysis.
A cell culture medium used is the α-minimum essential medium (α-MEM, Gibco, number 12000-022) containing 20% of fetal bovine serum (FBS. Gibco, number 10438-026) and 1% of antibiotic-antimycotic (Gibco, number 15240-062).
First, 8×10^4 OP9 cells (purchased from the American Type Culture Collection, ATCC®, number ATCC CRL-2749) were inoculated into a 24-well culture plate containing 500 μL of cell culture medium per well, and cultured at 37° C. for 7 days. During the 7-day cell culture, the cell culture medium was changed every 3 days. After the 7 days of culture, the formation of lipid droplets in the OP9 cells was observed by using a microscope (ZEISS; magnification 400×) to confirm that the OP9 cells were fully differentiated into fat cells for subsequent experiments.
Then, the differentiated fat cells were divided into a blank group and 5 experimental groups. The cell culture medium in each group was replaced with 500 μL of experimental medium per well, and then cultured at 37° C. for 7 days. During the 7-day culture, the experimental medium was replaced with a fresh 500 μL one every 3 days. The experimental culture medium in the blank group was just a cell culture medium (without other compounds), while the experimental culture medium in each of the 5 experimental group was a cell culture medium containing […] of corresponding compound identified in Example 7, and the 5 compounds were: syringin (TCI-LTF-01), 1,5-di-o-caffroylquinic acid (TCI-LTF-02), quercetin-3-glucuronide (TCI-LTF-03), gallic acid (TCI-LTF-06), and chlorogenic acid (TCI-LTF-08). […]
The content of glycerol was determined by using a glycerol cell-based assay kit (purchased from Cayman, USA, product number 10011725) according to the following steps. The experimental culture medium (that is, the experimental culture medium in which fat cells had been cultured, without the fat cells) in each group was collected, 25 μL of the experimental culture medium was transferred into a new 96-well culture plate, 100 μL of reconstituted free glycerol assay reagent was added into each well to react at room temperature for 15 min, and the absorbance OD540 nm of each group was read from the 96-well culture plate by an ELISA reader, to quantify the content of glycerol released into the experimental culture medium through lipolysis, as shown in FIG. 31. […] The obtained results were analyzed by student t-test using Excel software to determine whether there is a statistically significant difference between two sample groups. […]

A further experiment has as its system PYY gene. In words: Expression level of PYY gene in NCI-H716 cells (qRT-PCR). It counts as cell-based. As to conditions: Homo sapiens, read-out: expression level of the PYY gene relative to the blank group. On the procedure:
Herein, the expression level of the gene (Gene ID: 5697) of the peptide tyrosine-tyrosine (PPY) protein in human colorectal adenocarcinoma NCI-H716 cells (purchased from the Bioresource Collection and Research Center (BCRC), number 60517; hereinafter referred to as NCI-H716 cells) treated with each of the compounds TCI-LTF-01, TCI-LTF-02, TCI-LTF-04, TCI-LTF-08, TCI-LTF-09, TCI-LTF-10, TCI-LTF-11, TCI-LTF-12, and TCI-LTF-14 that were identified in Example 7 was determined by using the RNA extraction kit, SuperScript® III Reverse Transcriptase, KAPA SYBR®FAST qPCR reagent kit, and quantitative PCR machine.
A cell culture medium used is a solution containing 20% of fetal bovine serum (FBS, purchased from Gibco, number 10438-026, US), 1% of antibiotic-antimycotic (purchased from Gibco, number 15240-062), 10 mM of HEPES buffer (purchased from Gibco, number 15630080), and 1 mM of sodium pyruvate (purchased from Gibco, number 11360070). The compounds TCI-LTF-01, TCI-LTF-02, TCI-LTF-04, TCI-LTF-08, TCI-LTF-09, TCI-LTF-10, TCI-LTF-11, TCI-LTF-12, and TCI-LTF-14 each was formulated into 100 mM of stock sample with the DMSO solvent.
First, the NCI-H716 cells were inoculated into a 6-well culture plate containing 2 mL of culture medium in a density of 1×10^5 cells per well, and cultured at 37° C. for 24 h. Next, the NCI-H716 cells were divided into a blank group and 9 experimental groups. Then, the cell culture medium in each group was replaced with 2 mL of experimental culture medium per well, and then cultured at 37° C. for 12 h. The experimental culture medium in the blank group was a cell culture medium with no treatment (that is, no additional compounds were added into the cell culture medium). The experimental culture medium in each of the 9 experimental groups was a cell culture medium containing […] of corresponding compound identified in Example 7, and the 9 compounds were: syringin (TCI-LTF-01), 1,5-di-o-caffroylquinic acid (TCI-LTF-02), luteolin (TCI-LTF-04), chlorogenic acid (TCI-LTF-08), dihydrocaffeic acid (TCI-LTF-09), caffeic acid (TCI-LTF-10), 4-hyderoxy-3-phenlylactic acid methyl ester (TCI-LTF-11), calceolarioside B (TCI-LTF-12), and 4-hydroxyphenolic acid (TCI-LTF-14). Herein, each of the 9 compounds was first formulated into 100 mM of stock sample with the DMSO solvent, and then added into the cell culture medium to give a final concentration of 100 μM in the cell culture medium. Each group was repeated for three times.
The cell membranes of the NCI-H716 cells treated in each group were broken with a cell lysis buffer to form a cell solution. Next, RNA of the 10 groups of cell solutions was extracted separately by using an RNA extraction reagent kit (purchased from Geneaid, Taiwan, Lot No. FC24015-G). Then, 1000 ng of the extracted RNA in each group was used as a template, and the extracted RNA was reverse transcribed into corresponding cDNA by the SuperScript® III reverse transcriptase (purchased from Invitrogene, USA, number 18080-051). Subsequently, the quantitative real-time reverse transcription polymerase chain reaction was carried out on the 10 groups of cDNA with the primers (SEQ ID NO: 15 to SEQ ID NO: 16) in Table 4 by using the ABI StepOnePlus™ Real-Time PCR system (Thermo Fisher Scientific, USA) and the KAPA SYBR FAST (purchased from Sigma, USA, number 38220000000) to observe the expression level of the PPY gene in the NCI-H716 cells in the 10 groups. The instrument setting conditions for the quantitative real-time reverse transcription polymerase chain reaction were 95° C. for 20 s, 95° C. for 3 s, 60° C. for 30 s, a total of 40 cycles, and gene quantification was carried out by the 2^−ΔCt method (using the m-ACTB gene as an internal reference gene). Herein, the quantitative real-time reverse transcription polymerase chain reaction with cDNA can indirectly quantify the expression level of the PYY protein encoded by the PPY gene. […]

[2] abbreviates: NCI-H716 cells, final concentration 100 μM, 12 h, blank group = 1.0.

Molecules are shown by their SMILES. Read-outs that look alike come from different tables or passages of the source.

For the compound `COc1cc(/C=C/CO)cc(OC)c1O[C@@H]1O[C@H](CO)[C@@H](O)[C@H](O)[C@H]1O` [TCI-LTF-01, Syringin], the lipid droplet content in experiment [1] is recorded as 64.8%. For the same compound, the fold induction at 100 µM in the experiment on PYY gene (NCI-H716, 12 h) worked out at 6.2.

The compound `O=C(/C=C/c1ccc(O)c(O)c1)O[C@@H]1C[C@](OC(=O)/C=C/c2ccc(O)c(O)c2)(C(=O)O)C[C@@H](O)[C@H]1O` [TCI-LTF-02, 1,5-Di-O-caffroylquinic acid] returned a lipid droplet content in experiment [1] of 75.2%. The fold induction at 100 µM with PYY gene (setting [2]) is 2.3.

As for `O=c1cc(-c2ccc(O)c(O)c2)oc2cc(O)cc(O)c12` [TCI-LTF-04, Luteolin], the fold induction at 100 µM in the experiment with PYY gene (setting [2]) came out at 3.6.

On to `O=C(O)c1cc(O)c(O)c(O)c1` [TCI-LTF-06, Gallic acid], for which the lipid droplet content in experiment [1] was 72.4%.

`O=C(/C=C/c1ccc(O)c(O)c1)O[C@@H]1C[C@](O)(C(=O)O)C[C@@H](O)[C@H]1O` [TCI-LTF-08, Chlorogenic acid] registered a lipid droplet content in experiment [1] of 69.3%. The fold induction at 100 µM with PYY gene (setting [2]) stood at 5.3.

Consider `O=C(O)CCc1ccc(O)c(O)c1` [TCI-LTF-09, Dihydrocaffeic acid], for which the fold induction at 100 µM in the experiment with PYY gene (setting [2]) came to 4.9.

`O=C(O)/C=C/c1ccc(O)c(O)c1` [TCI-LTF-10, Caffeic acid]: the fold induction at 100 µM with PYY gene (setting [2]) was 3.5.

With `COC(=O)C(O)Cc1ccc(O)cc1` (stereo not shown) [TCI-LTF-11, 4-Hyderoxy-3-phenlylactic acid methyl ester], the fold induction at 100 µM in the experiment with PYY gene (setting [2]) was found to be 4.5.

Take `O=C(/C=C/c1ccc(O)c(O)c1)OC[C@H]1O[C@@H](OCCc2ccc(O)c(O)c2)[C@H](O)[C@@H](O)[C@@H]1O` [TCI-LTF-12, Calceolarioside B]: in the experiment on PYY gene (setting [2]), the fold induction at 100 µM was found to be 5.6.

For `O=C(O)c1ccc(O)cc1` [TCI-LTF-14, 4-Hydroxyphenolic acid], the fold induction at 100 µM in the experiment on PYY gene (setting [2]) is 3.6.

(Values after patent US20220273748A1, “PLANT FERMENT AND WEIGHT LOSS METHOD FOR USING THE SAME” (TCI CO., LTD., priority 2021, published 2022).)
